From paper PMC9732821, “Neurotrophic Activity and Its Modulation by Zinc Ion of a Dimeric Peptide Mimicking the Brain-Derived Neurotrophic Factor N-Terminal Region” (ACS Chemical Neuroscience, 2022)

Legend:
[1] = far-UV CD spectra and Zn^2+ titration; assay type: physicochemical; conditions: water, 298 K, pH 7.4, wide minimum around 200 nm
Experimental: Figure 5 Evaluation of Zn^2+ ion binding on d-bdnf. (A,B) Deconvoluted ESI mass spectra of 10^–6 M d-bdnf solutions incubated in water 2 h, 37 °C in the presence of a 100-fold excess of Zn^2+. 0.1% of formic acid was added (A) or not (B) just before the infusion. (C) Far-UV CD spectra at pH 7.4 for titration with Zn^2+ of d-bdnf (the black curve is the spectrum of peptide; red, green, blue, cyano, and gray are spectra of peptide after the addition of increasing equivalents of metal ions. (D) Spectral changes as a function of zinc addition monitored at λ = 222 nm. [d-bdnf] = 1 × 10^–5 M. (E) Most representative conformation for the BDNF(1–12) dimer coordinating Zn(II) metal ion. Carbon atoms are shown in silver, nitrogen atoms are reported in blue, oxygen atoms in red, sulfur atoms are represented in yellow, and Zn atom is reported in orange. The secondary structure of the peptide is represented in green.
Far-UV CD spectra were obtained at 298 K under a constant flow of nitrogen by using a Jasco model 810 spectropolarimeter. […]
Potentiometric titrations were carried out on a Titrando 905 automatic, using a combined glass-Ag/AgCl electrode (Metrohm, Switzerland). […] To avoid systematic errors and verify reproducibility, the EMF values of each experiment were recorded at different time intervals. The data were analyzed by using HYPERQUAD 2003 program 17. […]

SH-SY5Y cells = experiment: neurite outgrowth of differentiated SH-SY5Y cells; assay type: cell-based, human; conditions: 3 days after 5 days retinoic acid
Experimental: Figure 3 Neurite outgrowth stimulated by BDNF and its mimetic peptide ligands. (A) Top, left: schematic timeline of the experiment. SH-SY5Y cells were differentiated for 5 days (d1–5) by addition of retinoic acid (RA, gray bar) in the cell medium. Then, cells were stimulated for 3 days (d6–8) with 150 ng/mL BDNF or different concentrations of its peptide-mimetics (black bar) or left untreated (white bar). On the right and bottom, representative images of the differentiated cells at the end of each treatment. Scale bar 50 μm. (B) Scatter dot plot of the total neurite length, normalized to the number of cell bodies present in each analyzed field. […] For each field, an average of 50–200 cells were counted. […] (C) Representative fluorescence images of DIV3 Ren cells stained with DAPI (blue) and β3-tubulin (green) after differentiation with the standard medium (CTRL), or with the standard medium supplemented with 50 ng/mL BDNF or with 1 μM d-bdnf. […] (D) Column plot of the mean ± SD fraction of β3-tubulin (green) positive on the total cells, counted in the DAPI channel of the analyzed fields (nfields) (CTRL: nfields = 10 and total ncells = 4756; BDNF: nfields = 11 and total ncells = 4330; d-bdnf: nfields = 10 and total ncells = 5619 cells; ****p < 0.0001, *p < 0.05 according to the one-way ANOVA with Dunnett’s multiple comparison test). […]

## HSDPARRGELSVC-C-VSLEGRRAPDSH (disulfide) [d-bdnf]
[1]
  conformation by far-UV CD: predominantly a random coil conformation
SH-SY5Y cells; 1 and 5 μM, compared with BDNF 150 ng/mL
  neurite network: able to elicit a neurite network similar to that raised by nM concentrations of BDNF
SH-SY5Y cells; higher doses (10 μM)
  neurite network: not able to produce the same effect
